# Measurements reported in patent publication EP1285918A1, “C7 Ester substituted taxanes as antitumor agents” (Florida State University Research Foundation, Inc., priority 2001, dated 2003).
# Like-named read-outs stand apart in the source and are kept apart here.
# How the values were obtained:
# [1] = tested on: Panc-1 Human Pancreatic Carcinoma Xenografts; conditions: for mean group weight losses / tolerability: mouse, in vivo
# Description: (§1) Other antitumor compounds were similarly formulated. […] The dosing volume was 0.3 mL per 20 g mouse.
# Female NCr-nude mice (6-8 weeks of age, implanted subcutaneously with 1 mm^3 Panc-1 pancreatic carcinoma fragments in the flank) were sorted into treatment groups of six mice each. […] Dosing was initiated on Day 1. The antitumor compounds were given i.v. at an estimated maximum tolerated dose (MTD) appropriate for each agent on a qd x 1 schedule (single administration of compound). […] Taxotere was given i.v. at a dose of 70 mg/kg on a qd x 1 schedule. The vehicle was given i.v. to control mice in Group 1 in each test on Day 1 (qd x 1) schedule. Treatment groups are detailed in Table 12. The study was terminated on Day 63.
# The mean days of survival is the number of days after which a neoplasm reached a size of 1.5 g and the animal was euthanized. A complete response is obtained if the tumor is not palpable at the end of the study. A partial response is obtained if the tumor shrinks to a size smaller than its size on Day 1 of the study.
# [2] = tested on: DU 145 Human Prostate Carcinoma Xenografts; conditions: DU145; for MDS (n) / Complete Response / Partial Response / Stable Disease / Survivors / Mean Score / Toxic Deaths: i.v. qd x 1 (mg/kg: Taxol 24, 1351 107.6, 1393 72.6, 1401 107.6, 1418 107.6, 1424 195.1); for MDS (n) / Complete Response / Partial Response / Stable Disease / Survivors / Toxic Deaths: 5 mice/group, Day 91; for MDS (n): 1.5 g cut-off; for Mean Score: tumor score 1 to 10, group mean
# Description: (§2) Other antitumor compounds were similarly formulated. […] The dosing volume was 0.3 ml per 20 g mouse.
# Male NCr-nude mice (implanted subcutaneously with 1 mm^3 DU145 prostate carcinoma fragments in the flank) were sorted into treatment groups of five mice each. […] Dosing was initiated on Day 1. The antitumor compounds were given i.v. at an estimated maximum tolerated dose (MTD) appropriate for each agent on a qd x 1 schedule (single administration of compound). […] The vehicle was administered i.v. to control mice in Group 1 on the qd x 1 schedule. The study was terminated on Day 91. Treatment groups are detailed in Table 5.
# (§3) The mean days of survival is the number of days after which a neoplasm reached a size of 1.5 g and the animal was euthanized. A complete response is obtained if the tumor is not palpable at the end of the study. A partial response is obtained if the tumor shrinks to a size smaller than its size on Day 1 of the study. […]
# [3] = tested on: VM46 Human Colon Carcinoma Xenografts; conditions: for MDS (n): days until tumor reached 1.5 g; for maximal mean group weight losses / tolerability: mouse, in vivo, iv
# Description: as §1
# Female NCr-nude mice (6-8 weeks of age, implanted subcutaneously with 1 mm^3 VM46 colon carcinoma fragments in the flank) were sorted into treatment groups of six mice each. […] Dosing was initiated on Day 1. The antitumor compounds were given i.v. at an estimated maximum tolerated dose (MTD) appropriate for each agent on a qd x 1 schedule (single administration of compound). […] Taxotere was given i.v. at a dose of 70 mg/kg on a qd x 1 schedule. The vehicle was given i.v. to control mice in Group 1 in each test on Day 1 (qd x 1) schedule. Treatment groups are detailed in Table 13. The VM46 study ended on Day 64.
# as §3, with “The results are summarized in table 14 and include mean days of survival (MDS), number of toxic deaths, number of survivors, number of complete or partial responses, and number with stable disease. The” for “The”
# [4] = tested on: A375 Human Melanoma Xenografts; conditions: for Complete Response / Partial Response / Stable Disease / Survivors / Mean Score / MDS (n) / Toxic Deaths / survival extension compared to Group 1 controls: A375; for Complete Response / Partial Response / Stable Disease / Survivors / Mean Score / MDS (n) / Toxic Deaths: i.v. qd x 1 (mg/kg: Taxol 24, 1351 107.6, 1393 72.6, 1401 107.6, 1418 107.6, 1424 195.1, Taxotere 70); for Complete Response / Partial Response / Stable Disease / Survivors / MDS (n) / Toxic Deaths: Day 60; for Mean Score: tumor score 1 to 10, group mean; for MDS (n): 2.0 g cut-off; for survival extension compared to Group 1 controls: i.v. qd x 1 (mg/kg: Taxol 24, 1393 72.6, 1418 107.6, Taxotere 70)
# Description: as §2
# Female NCr-nude mice (implanted subcutaneously with 1 mm^3 A375 melanoma in the flank) were sorted into treatment groups of six mice each, except for the Taxotere group having seven mice each. […] Dosing was initiated on Day 1. The antitumor compounds were given i.v. at an estimated maximum tolerated dose (MTD) appropriate for each agent on a qd x 1 schedule (single administration of compound). […] Taxotere was given i.v. on a qd x 1 schedule at a dose of 70 mg/kg. The vehicle was administered i.v. to control mice in Group 1 on the qd x 1 schedule. Treatment groups are detailed in Table 9. The study was terminated on Day 60.
# as §3, with “The results are summarized in Table 10 and include mean days of survival (MDS), number of toxic deaths, number of survivors, number of complete or partial responses, and number with stable disease. The” for “The”, “tumor” for “neoplasm”, “2.0” for “1.5”
# [5] = Panc-1, i.v. qd x 1 (mg/kg: Taxol 24, 1351 75.32, 1393 72.6, 1401 107.6, 1418 107.6, 1424 195.1), 6 mice/group
# [6] = i.v. qd x 1 at estimated MTD, 6 mice/group, study end Day 63
# [7] = 107.6 mg/kg i.v. qd x 1, 6 mice/group, study end Day 64
# [8] = VM46, i.v. qd x 1 at estimated MTD, 6 mice/group
# [9] = 70 mg/kg i.v. qd x 1, 6 mice/group, study end Day 64
SMILES,"Survivors [1, 6]","Toxic Deaths [1, 6]",mean group weight losses ([1]; iv),Complete Response [2],Partial Response [2],Stable Disease [2],Survivors [2],Mean Score [2],"Complete Response [3, 7]","Mean Score [3, 7]","Partial Response [3, 7]","Stable Disease [3, 7]","Survivors [3, 7]","Toxic Deaths [3, 7]","MDS (n) [3, 7]",maximal mean group weight losses [3],Complete Response [4],Partial Response [4],Survivors [4],Mean Score [4],also measured
CCC(=O)O[C@H]1C[C@H]2OC[C@@]2(OC(C)=O)[C@H]2[C@H](OC(=O)c3ccccc3)[C@]3(O)C[C@H](OC(=O)[C@H](O)[C@H](C=C(C)C)NC(=O)OC(C)(C)C)C(C)=C([C@@H](O)C(=O)[C@]12C)C3(C)C [Compound 1351],4,0,3-13%,0,1,0,1,2.6 ± 1.5,0,4.5 ± 1.4,1,2,3,0,43.7 ± 3.4 (3) days,3-14%,0,0,0,0±0,"Toxic Deaths [1, 5]: no toxic deaths; Complete Response [1, 6]: 1; Mean Score [1, 6]: 5.7 ± 1.3; Partial Response [1, 6]: 1; Stable Disease [1, 6]: 2; MDS (n) ([1]; i.v. qd x 1 at estimated MTD, 6 mice/group, study end Day 63, days until tumor reached 1.5 g): 42.5 ± 10.2 days; tolerability ([1]; iv): well-tolerated; mortality rate ([2]; 1351 107.6 mg/kg i.v. qd x 1): 40%; weight loss in a number of the treated mice prior to their deaths ([2]; 1351 107.6 mg/kg i.v. qd x 1): over 20%; MDS (n) [2]: 62.6 ± 17.5 (2) days; Toxic Deaths [3, 8]: no toxic deaths; tolerability [3]: quite well-tolerated; Stable Disease [4]: 0; mean group weight losses ([4]; mouse, in vivo, iv): 20-30%"
CCC(=O)O[C@H]1C[C@H]2OC[C@@]2(OC(C)=O)[C@H]2[C@H](OC(=O)c3ccccc3)[C@]3(O)C[C@H](OC(=O)[C@H](O)[C@@H](NC(=O)OC(C)(C)C)c4ccoc4)C(C)=C([C@@H](O)C(=O)[C@]12C)C3(C)C [Compound 1401],6,0,3-13%,1,0,0,1,3.6 ± 1.7,0,2.5 ± 1.3,1,0,1,1,46.1 ± 5.9 (4) days,under 12%,0,0,0,2±0,"Toxic Deaths [1, 5]: no toxic deaths; Complete Response [1, 6]: 0; Mean Score [1, 6]: 6.8 ± 0.8; Partial Response [1, 6]: 3; Stable Disease [1, 6]: 3; tolerability ([1]; iv): well-tolerated; MDS (n) [2]: 72.6 ± 8.7 (3) days; Toxic Deaths [2]: 1; Toxic Deaths [3, 8]: not more than one; tolerability [3]: Acceptable toxicity; MDS (n) [4]: 22.2 ± 1.1 (6) days; Stable Disease [4]: 0; Toxic Deaths [4]: 0"
CCC(=O)O[C@H]1C[C@H]2OC[C@@]2(OC(C)=O)[C@H]2[C@H](OC(=O)c3ccccc3)[C@]3(O)C[C@H](OC(=O)[C@H](O)[C@@H](NC(=O)OC(C)(C)C)c4cccs4)C(C)=C([C@@H](O)C(=O)[C@]12C)C3(C)C [Compound 1418],6,0,3-13%,1,2,1,4,7.2 ± 1.2,0,3.5 ± 0.8,0,3,3,0,41.7 ± 3.4 (3) days,3-14%,0,1,2,4 ± 1.3,"Partial Responses ([1]; Panc-1, i.v. qd x 1 (mg/kg: 1393 72.6, 1418 107.6), 6 mice/group, Day 63): 5; Complete Response ([1]; iv, 1512 h): 0; Mean Score ([1]; iv, 1512 h): 8 ± 0.6; Partial Response ([1]; iv, 1512 h): 5; Stable Disease ([1]; iv, 1512 h): 1; Toxic Deaths [2]: 0; total response rate ([2]; i.v. qd x 1 at estimated MTD): ≥ 50%; MDS (n) [4]: 34.5 ± 3.1 (3) days; survival extension compared to Group 1 controls [4]: 140%"
"CC(=O)O[C@@]12CO[C@@H]1C[C@H](O)[C@@]1(C)C(=O)[C@H](O)C3=C(C)[C@@H](OC(=O)[C@H](O)[C@@H](NC(=O)OC(C)(C)C)c4ccccc4)C[C@@](O)([C@@H](OC(=O)c4ccccc4)[C@H]21)C3(C)C [docetaxel, reference compound]",–,–,–,–,–,–,–,–,–,–,–,–,–,–,–,–,0,0,0,2±0,"Complete Response [3, 9]: 0; Mean Score [3, 9]: 2 ± 0; Partial Response [3, 9]: 0; Stable Disease [3, 9]: 0; Survivors [3, 9]: 0; Toxic Deaths [3, 9]: 0; MDS (n) [3, 9]: 45.3 ± 3.6 (6) days; MDS ([3]; VM46, i.v. qd x 1 (Taxol 24 mg/kg, Taxotere 70 mg/kg), 6 mice/group, 1.5 g cut-off, Day 64): 45.3 days; MDS (n) [4]: 21.5 ± 0.5 (7) days; Stable Disease [4]: 0; Toxic Deaths [4]: 0; survival extension compared to Group 1 controls [4]: 49%"
